The values below come from patent publication US5688764A, “Insecticidal peptides from spider venom” (NPS Pharmaceuticals, Inc., priority 1995, dated 1997).

In data set [1] the test system is tobacco budworm (TBW), Heliothis virescens. In words: Bioassay: injection into the abdomen of fifth instar tobacco budworm larvae, paralysis. The following applies: probit regression. The data set is classed as in vivo. The method, then: Whole venom was isolated by known techniques from the spider, Calisoga. The whole venom, or peptides purified therefrom, were dissolved in sterile buffered physiological saline. For testing and characterization purposes, venom and toxins were administered by injection into the abdomen of fifth instar larvae of the tobacco budworm (TBW), Heliothis virescens. Control larvae were injected with an equal volume of saline. After treatment, the insects were placed individually in Petri dishes, with food, and observed.
Insects that could not right themselves within thirty seconds of being placed on their backs or side were considered paralyzed. Fifty percent paralytic dose (PD50) values were calculated by probit regression (see Example 2). Raymond, M., Ser. Ent. med et Parasitol, 22(2), 117-121 (1985).
Whole venom from a spider, Calisoga sp. (Aranae: Nemesiidae), was dissolved in the desired volume of sterile, buffered physiological saline. Samples were administered by injection into the abdomen of the fifth instar larvae of the tobacco budworm, Heliothis virescens, as previously described. Control larvae were injected with equal volumes of saline.

A further data set has as its system Balb-C mice. In words: Mammalian toxicity by intraperitoneal injection in mice. The data set is classed as in vivo. The following applies: male Balb-C mice, 50 micrograms per mouse (~2 mg/kg), up to 120 hours after treatment. The method, then: Peptide A was tested for mammalian toxicity by intraperitoneal injection in mice. Two male Balb-C mice (~25 grams each) were injected with peptide A in physiological saline, at a dose of 50 micrograms per mouse (~2 mg/kg). Two control mice were injected with an equal volume of saline carrier. The mice were observed continuously for 1.5 hours, and periodically thereafter.

For data set [2], the system named is Heliothis virescens larvae. The following applies: toxin secreted in the course of infection by recombinant baculovirus; natural host; cited from earlier work.
The next data set deals with Manduca sexta larvae. The following applies: toxin secreted in the course of infection by recombinant baculovirus; unnatural host; cited from earlier work.

For the molecule “peptide A (CISARYPCSNSKDCCSGNCGTFWTCYIRKDPCSKECLAP)”, in data set [1], the “PD50 95% confidence interval” value fell in the range of 1.70 to 3.22 µg/g and the “PD50 (fifty percent paralytic dose)” value stood at 2.37 µg/g. Also, the “mammalian toxicity: effects observed” value with Balb-C mice is reported as “No effects were noted”.
Turning to “peptide B (CISARYPCSNSKDCCSGNCGTFWTCFIRKDPCSKECLAP)”, in data set [1], the “PD50 95% confidence interval” value lay in the range of 1.72 to 8.0 µg/g and the “PD50 (fifty percent paralytic dose)” value was found to be 3.7 µg/g.

B1: AaIT: scorpion peptide insect toxin expressed from a recombinant baculovirus (McCutchen et al. 1991) (protein, UniProt P01497 19-88, looked up)
Beta-insect excitatory toxin 1: KKNGYAVDSSGKAPECLLSNYCNNECTKVHYADKGYCCLLSCYCFGLNDDKKVLEISDTRKSYCDTTIIN
Turning to B1, the “effect on larvae (paralysis)” value (in data set [2]; in the data set on Manduca sexta larvae) was “caused paralysis” in each case.
